Assay results published in US6197982A, “Vitamin D analogues” (priority 1996, dated 2001).
Entries after “also recorded” stand apart in the source; their conditions may differ. Where two headings read alike, the source gives them in different places. Each block holds one molecule with its values, some of them ahead of it.

Experiments:
skin allograft = settings: mice; cited from earlier work
mouse spleen lymphocytes = experiment: mixed lymphocyte reaction (MLR), 3H-thymidine incorporation; type: cell-based, mouse (BALB/c and CB6F1); settings: for MLR rel. (ratio between the IC50 value of 1,25(OH)2 D3 and the IC50 value of the compound): relative to 1,25(OH)2 D3, 72 hours, >1 = more active; for immunosuppressive activity (MLR), in words: also in comparison with prior art reference compounds
Method: The mixed cultures of lymphocytes are incubated with the test compounds for 72 hours. Cellular DNA-synthesis is assessed by the incorporation of ^3 H-thymidine in the D
(§1) .sunburst. The values are relative to 1,25 (OH)2 D3; a value
(§2) H-thymidine incorporation compared to controls.

[1] = calcemic activity in rats in vivo; parameters: species or system rat; key to Calc. rel. (calcemic activity relative to 1,25(OH)2 D3): calcemic activity relative to 1,25(OH)2D3 (=1); settings: for Calc. rel. (calcemic activity relative to 1,25(OH)2 D3): rats in vivo, low values preferred; for calcemic activity, in words: compared with 1,25(OH)2 D3
Method: The calcemic activity of the compounds was determined in rats in vivo, as previously described. In table 1, column "Calc., rel.", the calcemic activities of selected compounds (relative to 1,25(OH)2 D3) are listed; as mentioned, low values for the compounds of the present invention are ordinarily preferred.
as §1

[2] = system: HaCaT, human skin keratinocyte cell line; experiment: HaCaT antiproliferative assay, 3H-thymidine uptake; type: cell-based; settings: for inhibition at 0.1 µM: Homo sapiens, HaCaT, read-out: HaCaT, max. % (maximal inhibition of the cell proliferation); for inhibition at 0.1 µM / maximal inhibition in HaCaT, in words: at 10^-7 M; for HaCaT rel. (ratio between the IC50 value of 1,25(OH)2 D3 and the IC50 value of the compound): relative to 1,25(OH)2 D3, 3H-thymidine incorporation, >1 = more active; for maximal inhibition in HaCaT, in words / potency in the HaCaT-assay (psoriasis model), in words: compared with 1,25(OH)2 D3
Text: as §1, §2
.cndot. "HaCaT, max %" indicates the maximal inhibition of the cell
proliferation (maximal efficacy) which is obtainable at the higher
concentration of 10^-7 M of a compound.

receptor = settings: relative to 1,25(OH)2 D3; cited from earlier work
HL-60 cancer cells = settings: relative to 1,25(OH)2 D3; cited from earlier work
graft rejection = settings: cited from earlier work
transcriptional activity = settings: compared to 1,25(OH)2 D3; cited from earlier work
[3] = system: regulatory/suppressor T-lymphocytes; settings: cited from earlier work
activated T-lymphocytes = settings: cited from earlier work
[4] = system: type I diabetes, non-obese diabetic (NOD) mouse; settings: cited from earlier work
Cytotoxic T-cells = settings: cited from earlier work
angiogenesis = settings: cited from earlier work
immune functions = settings: in vivo; cited from earlier work
cells = settings: cited from earlier work
calcium metabolism = settings: cited from earlier work; for activity on calcium metabolism: in vivo
monocytes/macrophages = settings: cited from earlier work
B-lymphocytes = settings: in vitro; cited from earlier work
psoriasis = settings: cited from earlier work
[5] = in vivo; cited from earlier work
[6] = system: autoimmune disease recurrence in NOD mice; settings: cited from earlier work
breast cancer cells [7] = settings: cited from earlier work
breast cancer cells [8] = settings: in vitro; cited from earlier work

SMILES: C=C1/C(=C\C=C2/CCC[C@]3(C)[C@@H]([C@H](C)CCCCC(O)(CC)CC)CC[C@@H]23)C[C@@H](O)C[C@@H]1O [CB 966]
skin allograft survival / immunosuppression (skin allograft): prolonged skin allograft survival in mice

SMILES: C=C1/C(=C\C=C2/CCC[C@]3(C)[C@@H]([C@H](C)[C@H](CCC(C)(C)O)OC)CC[C@@H]23)C[C@@H](O)C[C@@H]1O [22S-methoxy-1,25(OH)2 D3]
receptor binding affinity, times that of 1,25(OH)2 D3 (receptor): 0.03 times | potency in inducing differentiation of HL-60 cancer cells, times that of 1,25(OH)2 D3 (HL-60 cancer cells): 0.25 times

SMILES: C=C1/C(=C\C=C2/CCC[C@]3(C)[C@@H]([C@@H](C)CCCC(C)(C)O)CC[C@@H]23)C[C@@H](O)C[C@@H]1O [MC1288, 20-epi-1,25(OH)2 D3]
MLR rel. (ratio between the IC50 value of 1,25(OH)2 D3 and the IC50 value of the compound) (mouse spleen lymphocytes): 150 | immunosuppression / prevention of graft rejection (graft rejection; rat heart and small bowel transplantation): effective as an immunosuppressant in a rat model of heart and small bowel transplantations, preventing graft rejection; also recorded: valuable immunosuppressive activity in animal transplantation experiments | serum calcium level (graft rejection; rat transplantation model): moderately increased | Calc. rel. (calcemic activity relative to 1,25(OH)2 D3) [1]: 2.5 | transcriptional activity (transcriptional activity): enhanced transcriptional activity | inhibition at 0.1 µM [2]: 76% | HaCaT rel. (ratio between the IC50 value of 1,25(OH)2 D3 and the IC50 value of the compound) [2]: 43 | hypercalcemia / serum calcium (skin allograft): less hypercalcemic than KH 1060 | skin allograft survival / immunosuppression (skin allograft): very effective

SMILES: C=C1/C(=C\C=C2/CCC[C@]3(C)[C@@H]([C@H](C)CCCC(C)(C)O)CC[C@@H]23)C[C@@H](O)C[C@@H]1O [1,25(OH)2 D3, 1α,25-dihydroxy-vitamin D3]
regulatory/suppressor T-lymphocytes [3]: stimulated | cytokines IL-2 and INF-γ (activated T-lymphocytes): down-regulation of cytokines IL-2 and INF-γ | proliferation of activated T-lymphocytes (activated T-lymphocytes): inhibited | immunoregulation in type I diabetes [4]: effective immunomodulator | MLR rel. (ratio between the IC50 value of 1,25(OH)2 D3 and the IC50 value of the compound) (mouse spleen lymphocytes): 1 | cytotoxic T-cells (Cytotoxic T-cells): inhibited | Calc. rel. (calcemic activity relative to 1,25(OH)2 D3) [1]: 1 | angiogenesis (angiogenesis): inhibition of angiogenesis | inhibition at 0.1 µM [2]: 85% | HaCaT rel. (ratio between the IC50 value of 1,25(OH)2 D3 and the IC50 value of the compound) [2]: 1 | immune functions in vitamin D deficiency states (immune functions): restores normal immune functions in vitamin D deficiency states in vivo | differentiation of cells (cells): stimulate the differentiation of cells | excessive cell proliferation (cells): inhibit excessive cell proliferation | hypercalcemia (calcium metabolism; high doses necessary for therapeutic effect on e.g. psoriasis, cancer, immunological disorders): serious side effects due to hypercalcemia | production/release of cytokines such as IL-1 and TNF (monocytes/macrophages; antigen-stimulated monocytes/macrophages): downregulation | antibacterial activity of monocytes/macrophages (monocytes/macrophages): enhances their antibacterial activity | differentiation of monocytes towards macrophages (monocytes/macrophages): stimulates the differentiation of monocytes towards macrophages | formation of antibodies (IgM and IgG) from B-lymphocytes (B-lymphocytes): indirect inhibition of the formation of antibodies (IgM and IgG)

SMILES: C=C1/C(=C\C=C2/CCC[C@]3(C)[C@@H]([C@@H](C)OCCCC(O)(CC)CC)CC[C@@H]23)C[C@@H](O)C[C@@H]1O [KH 1060, 20-epi-22-oxa-25,26,27-trihomo-1,25-(OH)2 D3]
effect on calcium and bone [4]: only slight | immunoregulation in type I diabetes [4]: effective immunoregulator | transcriptional activity (transcriptional activity): enhanced transcriptional activity | toxicity [6]: toxic in the most effective high doses | delaying autoimmune disease recurrence ([6]; islet transplantation): very effective in delaying autoimmune disease recurrence | hypercalcemia / serum calcium (skin allograft): induced hypercalcemia in the highest, and most effective, dose | skin allograft survival / immunosuppression (skin allograft): prolonged skin allograft survival in mice; also recorded: most potent immunosuppressor

SMILES: C=C1/C(=C\C=C2/CCC[C@]3(C)[C@@H]([C@@H](C)C(O)CCC(C)(C)O)CC[C@@H]23)C[C@@H](O)C[C@@H]1O (some centres unmarked) [CB1297]
MLR rel. (ratio between the IC50 value of 1,25(OH)2 D3 and the IC50 value of the compound) (mouse spleen lymphocytes): 12 | inhibition at 0.1 µM [2]: 75% | HaCaT rel. (ratio between the IC50 value of 1,25(OH)2 D3 and the IC50 value of the compound) [2]: 45

SMILES: C=C1/C(=C\C=C2/CCC[C@]3(C)[C@@H]([C@@H](C)C(CCC(C)(C)O)OC)CC[C@@H]23)C[C@@H](O)C[C@@H]1O (single isomer, unassigned) [Compound 101]
immunosuppressive activity (MLR), in words (mouse spleen lymphocytes): potent effects | MLR rel. (ratio between the IC50 value of 1,25(OH)2 D3 and the IC50 value of the compound) (mouse spleen lymphocytes): 175 | calcemic activity, in words [1]: only about half as large as that of 1,25(OH)2 D3 | Calc. rel. (calcemic activity relative to 1,25(OH)2 D3) [1]: 0.45 | inhibition at 0.1 µM [2]: 92% | maximal inhibition in HaCaT, in words [2]: the same, or higher, maximal inhibition at 10^-7 M as 1,25(OH)2 D3 | potency in the HaCaT-assay (psoriasis model), in words [2]: considerably more potent than 1,25(OH)2 D3 | HaCaT rel. (ratio between the IC50 value of 1,25(OH)2 D3 and the IC50 value of the compound) [2]: 28

SMILES: C=C1/C(=C\C=C2/CCC[C@]3(C)[C@@H]([C@@H](C)C(CCC(C)(C)O)OCC)CC[C@@H]23)C[C@@H](O)C[C@@H]1O (single isomer, unassigned) [Compound 102]
immunosuppressive activity (MLR), in words (mouse spleen lymphocytes): potent effects | MLR rel. (ratio between the IC50 value of 1,25(OH)2 D3 and the IC50 value of the compound) (mouse spleen lymphocytes): 161 | calcemic activity, in words [1]: only about half as large as that of 1,25(OH)2 D3 | Calc. rel. (calcemic activity relative to 1,25(OH)2 D3) [1]: 0.50 | inhibition at 0.1 µM [2]: 85% | maximal inhibition in HaCaT, in words [2]: the same, or higher, maximal inhibition at 10^-7 M as 1,25(OH)2 D3 | potency in the HaCaT-assay (psoriasis model), in words [2]: considerably more potent than 1,25(OH)2 D3 | HaCaT rel. (ratio between the IC50 value of 1,25(OH)2 D3 and the IC50 value of the compound) [2]: 137

SMILES: C=C1/C(=C\C=C2/CCC[C@]3(C)[C@@H]([C@H](C)/C=C/C=C/C(O)(CC)CC)CC[C@@H]23)C[C@@H](O)C[C@@H]1O [EB 1089]
growth of breast cancer cells (breast cancer cells [7]): inhibits the growth of breast cancer cells in vitro and in vivo | selectivity between the anti-cancer and the calcemic effects (breast cancer cells [7]; in vivo): definite selectivity between the anti-cancer and the calcemic effects in vivo | growth of breast cancer cells (breast cancer cells [8]): inhibits the growth of breast cancer cells in vitro

More lines, main results first:

MLR rel. (ratio between the IC50 value of 1,25(OH)2 D3 and the IC50 value of the compound) (mouse spleen lymphocytes): 36 | Calc. rel. (calcemic activity relative to 1,25(OH)2 D3) [1]: 1.2
SMILES: C=C1/C(=C\C=C2/CCC[C@]3(C)[C@@H]([C@@H](C)C(C#CC(O)(CC)CC)OCC)CC[C@@H]23)C[C@@H](O)C[C@@H]1O (some centres unmarked) [GS1720]
inhibition at 0.1 µM [2]: 70% | HaCaT rel. (ratio between the IC50 value of 1,25(OH)2 D3 and the IC50 value of the compound) [2]: 3.9

MLR rel. (ratio between the IC50 value of 1,25(OH)2 D3 and the IC50 value of the compound) (mouse spleen lymphocytes): 13 | Calc. rel. (calcemic activity relative to 1,25(OH)2 D3) [1]: 8.2
SMILES: C=C1/C(=C\C=C2/CCC[C@]3(C)[C@@H]([C@@H](C)C(O)C#CC(O)(CC)CC)CC[C@@H]23)C[C@@H](O)C[C@@H]1O (some centres unmarked) [GS1535]
inhibition at 0.1 µM [2]: 82% | HaCaT rel. (ratio between the IC50 value of 1,25(OH)2 D3 and the IC50 value of the compound) [2]: 313

MLR rel. (ratio between the IC50 value of 1,25(OH)2 D3 and the IC50 value of the compound) (mouse spleen lymphocytes): 0.6 | Calc. rel. (calcemic activity relative to 1,25(OH)2 D3) [1]: 0.005
SMILES: C=C1/C(=C\C=C2/CCC[C@]3(C)[C@@H]([C@H](C)/C=C/[C@@H](O)C4CC4)CC[C@@H]23)C[C@@H](O)C[C@@H]1O [MC903]
hypercalcemia in patients (psoriasis; psoriasis patients): without hypercalcemia | improvement, % of the patients (psoriasis; without hypercalcemia, psoriasis): 70-80% | inhibition at 0.1 µM [2]: 78% | HaCaT rel. (ratio between the IC50 value of 1,25(OH)2 D3 and the IC50 value of the compound) [2]: 1.8 | metabolism [5]: rapid metabolism | activity on calcium metabolism (calcium metabolism): only moderate activity on calcium metabolism in vivo | activity on calcium metabolism (calcium metabolism; listed as Calcipotriol): low in vivo activity on calcium metabolism

MLR rel. (ratio between the IC50 value of 1,25(OH)2 D3 and the IC50 value of the compound) (mouse spleen lymphocytes): 150 | Calc. rel. (calcemic activity relative to 1,25(OH)2 D3) [1]: 12
SMILES: C=C1/C(=C\C=C2/CCC[C@]3(C)[C@@H]([C@@H](C)C(C#CC(O)(CC)CC)OC)CC[C@@H]23)C[C@@H](O)C[C@@H]1O (some centres unmarked) [GS1725]
inhibition at 0.1 µM [2]: 96% | HaCaT rel. (ratio between the IC50 value of 1,25(OH)2 D3 and the IC50 value of the compound) [2]: 4.4
